From patent US20240336572A1, “SUBSTITUTED INDAZOLE PROPIONIC ACID DERIVATIVE COMPOUNDS AND USES THEREOF” (Pfizer Inc., priority 2023, published 2024)

How the values were obtained:
AMPK 111 = biological target: T1, AMPK 111 (Homo sapiens, UniProt Q13131+Q9Y478); assay: Biochemical profiling of AMPK activators by AMPK111 (HTRF/TR-FRET assay, SAMS peptide, PP2A dephosphorylation protection); conditions: for EC50: phosphorylated AMPK 111 (α1β1δ1 as printed), 11 point dilution, duplicate, 4-parameter fit; for Emax: phosphorylated AMPK 111, maximal activation
T1 construct: open reading frames encoding the full-length α1, β1 and δ1 subunits of human AMPK; made in house; host or cells: E. coli BL21-CodonPlus (DE3)-RIPL, pET-14b
T1 sequence (Q13131 whole entry): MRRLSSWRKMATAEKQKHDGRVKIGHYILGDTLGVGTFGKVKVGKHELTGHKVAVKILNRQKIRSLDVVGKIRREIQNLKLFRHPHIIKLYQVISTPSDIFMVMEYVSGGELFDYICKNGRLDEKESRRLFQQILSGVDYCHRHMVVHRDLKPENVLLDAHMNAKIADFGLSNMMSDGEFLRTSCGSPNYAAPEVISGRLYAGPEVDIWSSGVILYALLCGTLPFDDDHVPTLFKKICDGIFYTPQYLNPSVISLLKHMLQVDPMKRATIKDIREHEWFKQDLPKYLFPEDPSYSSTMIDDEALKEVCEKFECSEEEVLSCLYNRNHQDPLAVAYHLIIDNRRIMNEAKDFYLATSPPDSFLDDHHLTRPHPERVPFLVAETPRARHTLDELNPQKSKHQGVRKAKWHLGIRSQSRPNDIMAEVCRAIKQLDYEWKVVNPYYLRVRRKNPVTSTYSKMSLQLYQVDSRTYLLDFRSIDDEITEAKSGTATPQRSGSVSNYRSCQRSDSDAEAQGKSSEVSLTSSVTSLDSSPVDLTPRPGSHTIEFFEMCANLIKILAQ
T1 sequence (Q9Y478 whole entry): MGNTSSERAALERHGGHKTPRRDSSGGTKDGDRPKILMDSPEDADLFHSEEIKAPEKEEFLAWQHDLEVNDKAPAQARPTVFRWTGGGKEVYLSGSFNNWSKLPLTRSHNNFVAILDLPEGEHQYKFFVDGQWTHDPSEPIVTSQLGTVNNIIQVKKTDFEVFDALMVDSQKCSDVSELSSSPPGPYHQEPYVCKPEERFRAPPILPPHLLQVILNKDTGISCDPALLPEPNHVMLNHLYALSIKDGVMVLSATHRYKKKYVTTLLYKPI
T1 sequence (P54619 whole entry partner): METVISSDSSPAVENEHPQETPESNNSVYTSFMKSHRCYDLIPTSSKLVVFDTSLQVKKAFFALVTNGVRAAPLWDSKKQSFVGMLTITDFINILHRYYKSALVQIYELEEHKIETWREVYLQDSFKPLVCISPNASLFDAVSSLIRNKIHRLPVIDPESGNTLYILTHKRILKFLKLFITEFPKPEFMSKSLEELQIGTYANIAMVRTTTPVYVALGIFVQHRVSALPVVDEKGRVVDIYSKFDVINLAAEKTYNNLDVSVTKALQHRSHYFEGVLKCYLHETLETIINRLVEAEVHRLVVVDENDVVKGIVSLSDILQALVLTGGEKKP
Protocol: (§1) The biochemical EC50 (half-maximal concentration required for full activation) of compounds for the activation of AMPK was evaluated by HTRF assay using LANCE Ultra ULight-Acetyl-CoA Carboxylase (SAMS) peptide (commercially available, Perkin Elmer catalog TRF0133-M).
Following a fifteen-minute room temperature incubation, 5 μL of 30 nM protein phosphatase PP2A (isolation detailed above) diluted in the assay buffer was added to the plate, to dephosphorylate pThr172 of AMPK. […] The reaction was terminated after 60 minutes incubation at room temperature, by the addition of 5 μL of stop and detection cocktail, which consisted of 1× Perkin Elmer Lance buffer (Perkin Elmer catalog number CR97-100), 40 mM EDTA (Thermo Fisher catalog number BP2482-100), and 2 nM Eu-anti-Acetyl CoA Carboxylase [pSer70] antibody (Perkin Elmer, TRF0208-M).

AMPK 221 = biological target: T2, AMPK 221 (Homo sapiens, UniProt O43741+P54646); assay: Biochemical profiling of AMPK activators by AMPK221 (HTRF/TR-FRET assay, SAMS peptide, PP2A dephosphorylation protection); conditions: for EC50: phosphorylated AMPK 221 (α2β2δ1), 11 point dilution, duplicate, 4-parameter fit; for Emax: phosphorylated AMPK 221, maximal activation
T2 construct: open reading frames encoding the full-length α2, β2 and δ1 subunits of human AMPK; made in house; host or cells: E. coli BL21-CodonPlus (DE3)-RIPL, pET-14b
T2 sequence (P54646 whole entry): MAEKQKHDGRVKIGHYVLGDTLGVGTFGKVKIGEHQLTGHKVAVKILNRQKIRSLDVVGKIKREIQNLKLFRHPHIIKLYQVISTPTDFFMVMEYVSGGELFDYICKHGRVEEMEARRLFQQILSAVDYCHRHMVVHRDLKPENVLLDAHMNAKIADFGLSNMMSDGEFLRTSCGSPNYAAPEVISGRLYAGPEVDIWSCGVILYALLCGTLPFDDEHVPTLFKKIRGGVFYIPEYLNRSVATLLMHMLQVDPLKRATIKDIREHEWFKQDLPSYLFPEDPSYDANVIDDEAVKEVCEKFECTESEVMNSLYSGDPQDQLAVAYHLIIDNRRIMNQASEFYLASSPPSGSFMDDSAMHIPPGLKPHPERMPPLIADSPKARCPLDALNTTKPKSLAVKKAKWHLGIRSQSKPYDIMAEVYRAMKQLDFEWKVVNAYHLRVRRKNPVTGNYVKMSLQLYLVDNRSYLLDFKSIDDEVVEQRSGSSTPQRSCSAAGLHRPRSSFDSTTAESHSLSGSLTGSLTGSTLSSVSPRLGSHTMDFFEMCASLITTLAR
T2 sequence (O43741 whole entry): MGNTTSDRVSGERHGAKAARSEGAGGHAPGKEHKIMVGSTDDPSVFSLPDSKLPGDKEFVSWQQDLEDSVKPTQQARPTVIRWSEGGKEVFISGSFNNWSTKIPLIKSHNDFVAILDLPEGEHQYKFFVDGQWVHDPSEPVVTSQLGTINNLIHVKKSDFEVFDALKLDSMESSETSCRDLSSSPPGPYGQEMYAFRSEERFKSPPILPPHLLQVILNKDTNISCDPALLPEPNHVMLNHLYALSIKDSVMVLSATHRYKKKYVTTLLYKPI
T2 sequence (P54619 whole entry partner): as the sequence (P54619 whole entry partner) above
Protocol: as §1
The reaction was terminated after 60 minutes incubation at room temperature by the addition of 5 μL of stop and detection cocktail, which consisted of 1× Perkin Elmer Lance buffer (Perkin Elmer catalog number CR97-100), 40 mM EDTA (Thermo Fisher catalog number BP2482-100), and 2 nM Eu-anti-Acetyl CoA Carboxylase [pSer70] antibody (Perkin Elmer, TRF0208-M). Plates were spun at 1000 RPM, 10 seconds.

EC50 (AMPK 111)	Emax (AMPK 111)	EC50 (AMPK 221)	Emax (AMPK 221)	SMILES
137 nM	67%	198 nM	47%	N#Cc1cc2[nH]nc(CCC(=O)O)c2cc1-c1ccc(-c2ccccc2O)cc1 [Example 35, 3-(6-cyano-5-(2′-hydroxy-[1,1′-biphenyl]-4-yl)-1H-indazol-3-yl)propanoic acid]
45 nM	68%	200 nM	49%	O=C(O)CCc1n[nH]c2cc(Cl)c(-c3ccc(-c4ccc(C(=O)O)cc4O)cc3)cc12 [Example 36, 4′-(3-(2-carboxyethyl)-6-chloro-1H-indazol-5-yl)-2-hydroxy-[1,1′-biphenyl]-4-carboxylic acid]
464 nM	70%	205 nM	52%	CC(C)Oc1cccc(-c2ccc(-c3cc4c(CCC(=O)O)n[nH]c4cc3Cl)cc2)c1O [Example 37, 3-(6-chloro-5-(2′-hydroxy-3′-isopropoxy-[1,1′-biphenyl]-4-yl)-1H-indazol-3-yl)propanoic acid]
95 nM	67%	209 nM	64%	O=C(O)CCc1n[nH]c2cc(Cl)c(-c3ccc(-c4ccc(OCCN5CCOCC5)cc4)cc3)cc12 [Example 38, 3-(6-chloro-5-(4′-(2-morpholinoethoxy)-[1,1′-biphenyl]-4-yl)-1H-indazol-3-yl)propanoic acid]
109 nM	69%	218 nM	59%	CC(=O)N(C)c1ccc(-c2ccc(-c3cc4c(CCC(=O)O)n[nH]c4cc3Cl)cc2)cc1 [Example 39, 3-(6-chloro-5-(4′-(N-methylacetamido)-[1,1′-biphenyl]-4-yl)-1H-indazol-3-yl)propanoic acid]
92 nM	85%	306 nM	68%	NS(=O)(=O)c1ccc(-c2ccc(-c3cc4c(CCC(=O)O)n[nH]c4cc3Cl)cc2)cc1 [Example 40, 3-(6-chloro-5-(4′-sulfamoyl-[1,1′-biphenyl]-4-yl)-1H-indazol-3-yl)propanoic acid]
70 nM	66%	235 nM	65%	CC(=O)NCc1ccc(-c2ccc(-c3cc4c(CCC(=O)O)n[nH]c4cc3Cl)cc2)cc1 [Example 41, 3-(5-(4′-(acetamidomethyl)-[1,1′-biphenyl]-4-yl)-6-chloro-1H-indazol-3-yl)propanoic acid]
291 nM	68%	244 nM	64%	COc1cc(F)cc(-c2ccc(-c3cc4c(CCC(=O)O)n[nH]c4cc3Cl)cc2)c1O [Example 42, 3-(6-chloro-5-(5′-fluoro-2′-hydroxy-3′-methoxy-[1,1′-biphenyl]-4-yl)-1H-indazol-3-yl)propanoic acid]
51 nM	80%	248 nM	62%	O=C(O)CCCc1n[nH]c2cc(Cl)c(-c3ccc(-c4ccccc4O)cc3)cc12 [Example 43, 4-(6-chloro-5-(2′-hydroxy-[1,1′-biphenyl]-4-yl)-1H-indazol-3-yl)butanoic acid]
85 nM	79%	204 nM	52%	CS(=O)(=O)c1ccc(-c2ccc(-c3cc4c(CCC(=O)O)n[nH]c4cc3Cl)cc2)cc1 [Example 44, 3-(6-chloro-5-(4′-(methylsulfonyl)-[1,1′-biphenyl]-4-yl)-1H-indazol-3-yl)propanoic acid]
123 nM	82%	263 nM	66%	O=C(O)CCc1n[nH]c2cc(Cl)c(-c3ccc(-c4cccc(Cl)c4O)cc3)cc12 [Example 45, 3-(6-chloro-5-(3′-chloro-2′-hydroxy-[1,1′-biphenyl]-4-yl)-1H-indazol-3-yl)propanoic acid]
20 nM	82%	267 nM	59%	O=C(O)CCc1n[nH]c2cc(Cl)c(-c3ccc(-c4c(O)cccc4Cl)cc3)cc12 [Example 46, 3-(6-chloro-5-(2′-chloro-6′-hydroxy-[1,1′-biphenyl]-4-yl)-1H-indazol-3-yl)propanoic acid]
113 nM	83%	282 nM	59%	O=C(O)CCc1n[nH]c2cc(Cl)c(-c3ccc(-c4ccc(F)cc4O)cc3)cc12 [Example 47, 3-(6-chloro-5-(4′-fluoro-2′-hydroxy-[1,1′-biphenyl]-4-yl)-1H-indazol-3-yl)propanoic acid]
365 nM	43%	367 nM	9%	Cc1ccccc1-c1ccc(-c2cc3c(CCC(=O)O)n[nH]c3cc2Cl)cc1 [Example 48, 3-(6-chloro-5-(2′-methyl-[1,1′-biphenyl]-4-yl)-1H-indazol-3-yl)propanoic acid]
96 nM	74%	325 nM	61%	COc1cc(O)c(-c2ccc(-c3cc4c(CCC(=O)O)n[nH]c4cc3Cl)cc2)c(Cl)c1 [Example 49, 3-(6-chloro-5-(2′-chloro-6′-hydroxy-4′-methoxy-[1,1′-biphenyl]-4-yl)-1H-indazol-3-yl)propanoic acid]
153 nM	76%	337 nM	55%	O=C(O)CCc1n[nH]c2cc(Cl)c(-c3ccc(-c4c(O)cccc4F)cc3)cc12 [Example 50, 3-(6-chloro-5-(2′-fluoro-6′-hydroxy-[1,1′-biphenyl]-4-yl)-1H-indazol-3-yl)propanoic acid]
312 nM	71%	355 nM	22%	O=C(O)CCc1n[nH]c2cc(Cl)c(-c3ccc(-c4ccccc4)cc3)cc12 [Example 51, 3-(5-([1,1′-biphenyl]-4-yl)-6-chloro-1H-indazol-3-yl)propanoic acid]
6 nM	85%	19 nM	65%	COc1ccc(-c2ccc(-c3cc4c(CCC(=O)O)n[nH]c4cc3Cl)cc2)c(O)c1OC [Example 52, 3-(6-chloro-5-(2′-hydroxy-3′,4′-dimethoxy-[1,1′-biphenyl]-4-yl)-1H-indazol-3-yl)propanoic acid]
218 nM	69%	644 nM	55%	Cn1c(O)nc2cc(-c3ccc(-c4cc5c(CCC(=O)O)n[nH]c5cc4Cl)cc3)ccc21 [Example 53, 3-(6-chloro-5-(4-(2-hydroxy-1-methyl-1H-benzo[d]imidazol-5-yl)phenyl)-1H-indazol-3-yl)propanoic acid]
217 nM	61%	1010 nM	64%	O=C(O)CCc1n[nH]c2cc(Cl)c(-c3ccc(-c4ccc5c(c4)CS(=O)(=O)C5)cc3)cc12 [Example 54, 3-(6-chloro-5-(4-(2,2-dioxido-1,3-dihydrobenzo[c]thiophen-5-yl)phenyl)-1H-indazol-3-yl)propanoic acid]
208 nM	45%	389 nM	38%	N#Cc1cccc(-c2ccc(-c3cc4c(CCC(=O)O)n[nH]c4cc3Cl)cc2)c1O [Example 55, 3-(6-chloro-5-(3′-cyano-2′-hydroxy-[1,1′-biphenyl]-4-yl)-1H-indazol-3-yl)propanoic acid]
363 nM	48%	477 nM	18%	Cc1ccc(-c2ccc(-c3cc4c(CCC(=O)O)n[nH]c4cc3Cl)cc2)s1 [Example 56, 3-(6-chloro-5-(4-(5-methylthiophen-2-yl)phenyl)-1H-indazol-3-yl)propanoic acid]
103 nM	75%	426 nM	63%	O=C(O)CCc1n[nH]c2cc(Cl)c(-c3ccc(-c4cccc(OC(F)F)c4O)cc3)cc12 [Example 57, 3-(6-chloro-5-(3′-(difluoromethoxy)-2′-hydroxy-[1,1′-biphenyl]-4-yl)-1H-indazol-3-yl)propanoic acid]
215 nM	76%	573 nM	57%	O=C(O)CCc1n[nH]c2cc(Cl)c(-c3ccc(-c4csc(CO)c4)cc3)cc12 [Example 58, 3-(6-chloro-5-(4-(5-(hydroxymethyl)thiophen-3-yl)phenyl)-1H-indazol-3-yl)propanoic acid]
609 nM	30%	546 nM	13%	COc1nc(-c2ccc(-c3cc4c(CCC(=O)O)n[nH]c4cc3Cl)cc2)cs1 [Example 59, 3-(6-chloro-5-(4-(2-methoxythiazol-4-yl)phenyl)-1H-indazol-3-yl)propanoic acid]
241 nM	53%	532 nM	21%	Cc1cscc1-c1ccc(-c2cc3c(CCC(=O)O)n[nH]c3cc2Cl)cc1 [Example 60, 3-(6-chloro-5-(4-(4-methylthiophen-3-yl)phenyl)-1H-indazol-3-yl)propanoic acid]
